Assay results as given in US8680153B2, “Method for correcting a lipid imbalance in a subject” (The Royal Institution for the Advancement of …, priority 2005, dated 2014).
Where “and” joins values, the source holds several entries; their conditions need not be identical. Equal values may be shown once.

Columns and labels:
[1] = tested on: ceramide levels; assay: Ceramide levels by ELISA in lung and plasma of uninfected mice, fenretinide diet supplementation; assay type: in vivo; conditions: 5 mg/kg per day in diet, 28 days, 5 mg/kg/day
Text: Animals. Inbred C57BL/6-Cftr mice breeding pairs, heterozygous (HZ) at the Cftr locus, were used. All babies were genotyped between days 12 and 14 of their life. The animals were kept in cages with sterile corn bedding (Anderson, Bestmonro, La.) and maintained in ventilated racks (Lab Products). Mice were fed with either the NIH-31-modified irradiated mouse diet (Harlan Teklad, Indianapolis, Ind.) or a liquid diet starting at 14 days of age (Peptamen liquid diet; Nestle Canada, Brampton, ON). The liquid diet were freshly prepared every morning and provided in 50-mL centrifuge tubes (Fisher Scientific Ltd, Nepean, ON). Age- and gender-matched C57BL/6-Cftr+/+ (wild-type) mice, (female; n=10, male; n=31) and C57BL/6-Cftr−/− (Cftr-KO) mice (female; n=8, male; n=18) were murine pathogen-, Helicobacter- and parasite-free. They were housed (1-4 animals/cage), bred and maintained in a barrier facility unit under specific pathogen-free conditions. Experimental procedures with the mice were conducted in accordance with the Canadian Council on Animal Care guidelines and with the approval of the Animal Care Committee of the McGill University Health Center, Montreal, Quebec, Canada.
(§1) Fenretinide Diet Supplementation. Examples 2 to 6: fenretinide (Sigma-Aldrich, Oakville, ON) powder was resuspended in 95% ethanol and subsequently incorporated in the Peptamen liquid diet. It was protected from light and kept at 4° C. before being given to the mice (5 mg/kg per day per mouse). Mock-treated diets were prepared similarly by adding ethanol to the Peptamen diet but omitting the fenretinide supplementation. The diet was given every morning for 28 consecutive days with specific monitoring of the quantity consumed by the mice in each cage. Examples 7 to 12: fenretinide powder was kindly provided by Dr. Robert Smith (NIH; Bethesda, Md., USA). Fenretinide was resuspended in 95% ethanol to make a 2 μg/μL concentration. Approximately 40 μL of this preparation was incorporated into the Peptamen liquid diet (5 mg/kg per day per mouse). The prepared food containing fenretinide was then stored in the dark at 4° C. for no more than 3 hours prior to being administered to the mice. To ensure that the entire drug dose was consumed, the mice were given 10 mL of fenretinide-treated Peptamen, which represents ⅔ of the daily mouse food consumption, in the late afternoon. The remaining 5 mL of Peptamen (without fenretinide) was given the following morning. Mice were treated twice a week for 4 weeks. During the treatment period each mouse was kept in a separate cage (including WT mice) and was monitored to ensure that the entire amount of Peptamen containing the fenretinide or with out was consumed. The diet for the mock-treated control group was prepared and administered similarly to that described above, by adding the same volume of ethanol to the Peptamen diet but omitting the fenretinide supplementation.
Ceramide/Sphingolipids analysis. The concentration of ceramide in the (lung, liver, ileum, pancreas homogenates) and plasma from mice and humans were determined by ELISA^39;40 on separated lipids samples by thin layer chromatography, as described above. The phospholipids from the dry silica were resuspended in ethanol and used to coat Nunc plates specific for lipid binding. Plates were then washed, incubated with blocking buffer for 1 hr at 37° C. […]

[2] = tested on: DHA and AA levels; assay: Fatty acid analysis (DHA, AA, DHA/AA ratio) in lungs and plasma, 28 daily treatments; assay type: in vivo, mice
Experimental: as §1
Fatty Acid Analysis. Minced tissues isolated from mice were immersed in 1 mM BHA in chloroform and methanol (2:1 vol). For plasma samples (mouse and human), 100 μL of plasma was added to 1 mL of BHA. Lipids were then extracted from all samples according to standard methods (Folch, et al. (1957) J. Biol. Chem. 226:497-509). Identification of phospholipids was carried out by thin-layer chromatography extraction (Van Handel & Zilversmit (1957) J. Lab. Clin. Med. 50:152-157). Also, fractionated lipids were dried and resuspended in heptane:methanol:sulfuric acid (5:1:1) for free fatty acid extraction. Diazomethane was used to esterify the fatty acids released and the esters were identified by GC/MS (Hewlett Packard 5880A, WCOT capillary column (Supelco-10, 35 m×0.5 mm, 1 μm thick)) using commercial standards (Sigma-Aldrich).

[3] = fenretinide-treated Cftr-KO infected mice, lungs and plasma
[4] = wild-type mice, lungs and plasma

CC1=C(/C=C/C(C)=C/C=C/C(C)=C/C(=O)Nc2ccc(O)cc2)C(C)(C)CCC1 [fenretinide, all-trans-N-(4-hydroxyphenyl) retinamide]
Ceramide levels, fold-increase (FEN-treated over CTRL), Lung ([1]; Cftr-KO mice): 7.0 fold and 7.0 (n = 3) fold
Ceramide levels, fold-increase (FEN-treated over CTRL), Plasma ([1]; Cftr-KO mice): 6.9 fold and 6.9 (n = 3) fold
Ceramide levels, fold-increase (FEN-treated over CTRL), Lung ([1]; HZ mice): 2.1 fold and 2.1 (n = 3) fold
Ceramide levels, fold-increase (FEN-treated over CTRL), Plasma ([1]; HZ mice): 2.7 fold and 2.7 (n = 3) fold
Ceramide levels, fold-increase (FEN-treated over CTRL), Lung ([1]; WT mice): 1.4 fold and 1.4 (n = 10) fold
Ceramide levels, fold-increase (FEN-treated over CTRL), Plasma ([1]; WT mice): 1.6 fold and 1.6 (n = 12) fold
AA levels in the ileum, liver and pancreas ([2]; Cftr-KO mice): decrease
Difference in median DHA/AA index ratio, wild-type/Cftr-KO ([2]; FEN-treated mice (untreated = 67-fold)): 7 fold
Lowering of the difference in median DHA/AA index ratio between wild-type and Cftr-KO ([2]; FEN-treated vs untreated): approximately 10 fold
AA levels, median vs infected Cftr-KO untreated controls [2, 3]: lower median
Concentration of DHA incorporated in phospholipids, median vs wild-type infected controls [2, 3]: lower median
Free DHA concentration, median vs wild-type infected controls ([2]; fenretinide-treated Cftr-KO infected mice, plasma): higher median
Free DHA (percentile), median vs wild-type untreated uninfected controls ([2]; fenretinide-treated infected wild-type mice, lungs and plasma): significant difference
DHA incorporated in phospholipids (percentile of total fatty acids), median vs untreated Cftr-KO ([2]; infected Cftr-KO mice, lungs and plasma): no difference
DHA/AA median index ratio vs untreated Cftr-KO ([2]; infected Cftr-KO mice, lungs and plasma (significant only in lungs)): increase
DHA incorporated in phospholipids (percentile of total fatty acids), median vs untreated wild-type [2, 4]: no difference
DHA/AA median index ratio vs untreated wild-type [2, 4]: no effect
